Experimental data from article PMC12434495 (Chemical Science, 2025).

Key:
[1] = test system: α-thrombin; experiment: human α-thrombin; settings: 37 °C, up to 4 h
[2] = cited from earlier work

| not cleaved [1] [% cleavage after 4 h] | Substance | plasma half-life in vivo [2] [min] |
| --- | --- | --- |
| <10 | GEPGAPIDYDEYGDSSEEVGGAEVAQPKLYQRGEGGNGMEPIPEDYLQ (the three Y O-sulfated, R1,2,3 = SO3-) | – |
| – | bivalirudin | ~30 |
